# In ChEMBL document CHEMBL1152171 (Bioorg Med Chem Lett, 2008):
# Biological target: Synaptic vesicular amine transporter (Rattus norvegicus, UniProt Q01827)
# Test: Displacement of [3H]dihydrotetrabenazine from vesicular monoamine transporter-2 in rat brain synaptosome
# Type: tissue-based
# Synaptic vesicular amine transporter, sequence (Q01827 whole entry): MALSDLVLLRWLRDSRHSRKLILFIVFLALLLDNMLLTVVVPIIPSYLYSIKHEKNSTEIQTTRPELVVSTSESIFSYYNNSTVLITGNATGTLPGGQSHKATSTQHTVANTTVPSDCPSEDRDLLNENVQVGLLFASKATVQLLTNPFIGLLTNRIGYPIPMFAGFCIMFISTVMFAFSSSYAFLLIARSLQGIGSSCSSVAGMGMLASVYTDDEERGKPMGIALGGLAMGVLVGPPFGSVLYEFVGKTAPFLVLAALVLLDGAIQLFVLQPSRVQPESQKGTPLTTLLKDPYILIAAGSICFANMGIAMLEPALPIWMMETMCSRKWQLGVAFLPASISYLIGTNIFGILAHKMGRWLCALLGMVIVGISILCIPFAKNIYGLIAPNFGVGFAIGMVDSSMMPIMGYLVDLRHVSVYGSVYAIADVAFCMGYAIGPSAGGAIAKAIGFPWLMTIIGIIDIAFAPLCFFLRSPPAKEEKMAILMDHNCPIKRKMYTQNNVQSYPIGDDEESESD
row,Compound,Ki [µM]
1,c1ccc(C[C@H]2CCC[C@@H](c3ccccc3)N2)cc1,24.1
2,CN1[C@H](CCCc2ccccc2)CCC[C@@H]1CCCc1ccccc1,1
3,c1ccc(CCC[C@H]2CCC[C@@H](Cc3ccccc3)N2)cc1,1.13
4,CN1[C@@H](Cc2ccccc2)CCC[C@H]1Cc1ccccc1,10.5
5,CN1[C@@H](CCc2ccccc2)CCC[C@H]1Cc1ccccc1,2.77
6,CN1[C@@H](CCCc2ccccc2)CCC[C@H]1c1ccccc1,62.5
7,CN1[C@@H](Cc2ccccc2)CCC[C@H]1c1ccccc1,13.6
8,c1ccc(CCC[C@H]2CCC[C@@H](c3ccccc3)N2)cc1,28.6
9,c1ccc(CC[C@H]2CCC[C@@H](Cc3ccccc3)N2)cc1,12.2
10,CN1[C@@H](c2ccccc2)CCC[C@H]1c1ccccc1,> 100
11,c1ccc(CCC[C@H]2CCC[C@@H](CCc3ccccc3)N2)cc1,4.6
12,CN1[C@@H](CCCc2ccccc2)CCC[C@H]1CCc1ccccc1,0.88
13,c1ccc(CC[C@H]2CCC[C@@H](c3ccccc3)N2)cc1,28.4
14,CN1[C@@H](CCCc2ccccc2)CCC[C@H]1Cc1ccccc1,1.62
15,c1ccc(C[C@H]2CCC[C@@H](Cc3ccccc3)N2)cc1,7.68
16,c1ccc(CCC[C@@H]2CCC[C@H](CCCc3ccccc3)N2)cc1,4.56
